Source: patent publication US20090042726A1, “Novel Herbicides” (SYNGENTA LIMITED, priority 2005, published 2009)

Test system: Monocotyledonous and dicotyledonous test plants
Test: Herbicidal action, application pre-emergence (Example B1)
Type: in vivo
Parameters: key: 10=total damage to plant; 0=no damage to plant
Settings: 1000 g/ha, evaluated after 9 or 13 days; for AGSTE herbicidal action (damage score 0-10): Agrostis-tenius; for AMARE herbicidal action (damage score 0-10): Amaranthus retroflexus; for DIGSA herbicidal action (damage score 0-10): Digitaria sanguinalis; for POATR herbicidal action (damage score 0-10): Poa trivialis; for SETIT herbicidal action (damage score 0-10): Setaria italica
Method in brief: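 Seeds sown in sterilised standard soil were sprayed one day after sowing (pre-emergence) with 1000 mg/l active ingredient in aqueous solution containing 10% DMSO. Plants were kept in a climatic chamber at 24/19° C. day/night after application. Damage was scored 0 (none) to 10 (total) after 9 or 13 days.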

In the case of Cn1nc(OC(F)F)c(C[S+]([O-])C2=NOC(C)(C)C2F)c1C(F)(F)F (single isomer, unassigned) [2.29], the “AGSTE herbicidal action (damage score 0-10)” value (“AGSTE herbicidal action” below) is reported as 9, the “AMARE herbicidal action (damage score 0-10)” value (from here on “AMARE herbicidal action”) is reported as 8 and the “DIGSA herbicidal action (damage score 0-10)” value (shortened to “DIGSA herbicidal action”) is reported as 0. For the same compound, the “POATR herbicidal action (damage score 0-10)” value (“POATR herbicidal action” below) was 10 and the “SETIT herbicidal action (damage score 0-10)” value (from here on “SETIT herbicidal action”) was 9.

For Cn1nc(C(F)(F)F)c(C[S+]([O-])C2=NOC(C)(C)C2F)c1OCC(F)(F)F (mixture of isomers) [2.08], the “AGSTE herbicidal action” value was 10, the “AMARE herbicidal action” value was 10 and the “DIGSA herbicidal action” value was 10. For the same compound, the “POATR herbicidal action” value was 10 and the “SETIT herbicidal action” value was 10.

In the case of COCCOc1c(CS(=O)(=O)C2=NOC(C)(C)C2F)c(C(F)(F)F)nn1C (stereo not shown) [2.59], the “AGSTE herbicidal action” value is reported as 10, the “AMARE herbicidal action” value is reported as 10 and the “DIGSA herbicidal action” value is reported as 10. For the same compound, the “POATR herbicidal action” value was 10.

In the case of Cn1nc(C(F)(F)F)c(C[S+]([O-])C2=NOC(C)(C)C2F)c1OC(F)F (mixture of isomers) [2.23], the “AGSTE herbicidal action” value is reported as 10, the “AMARE herbicidal action” value is reported as 10 and the “DIGSA herbicidal action” value is reported as 10. The “POATR herbicidal action” value was 10 and the “SETIT herbicidal action” value was 10.

COc1cc(CS(=O)(=O)C2=NOC(C)(C)C2F)n(C)n1 (stereo not shown) [6.13] was tested, and the “AGSTE herbicidal action” value was 10, the “AMARE herbicidal action” value was 10 and the “DIGSA herbicidal action” value was 9. For the same compound, the “POATR herbicidal action” value was 10.

For CC1(C)ON=C(S(=O)(=O)Cc2c(F)cccc2F)C1F (stereo not shown) [1.17], the “AGSTE herbicidal action” value was 10, the “AMARE herbicidal action” value was 10 and the “DIGSA herbicidal action” value was 8. For the same compound, the “POATR herbicidal action” value was 10 and the “SETIT herbicidal action” value was 8.

Cn1nc(C(F)(F)F)c(CS(=O)(=O)C2=NOC(C)(C)C2Br)c1OC(F)F (stereo not shown) [Compound No. 2.06, 4-Bromo-3-(5-difluoromethoxy-1-methyl-3-trifluoromethyl-1H-pyrazol-4-ylmethylsulfonyl)-5,5-dimethyl-4,5-dihydro-isoxazole] was tested, and the “AGSTE herbicidal action” value was 10, the “AMARE herbicidal action” value was 7 and the “DIGSA herbicidal action” value was 8. The “POATR herbicidal action” value was 9 and the “SETIT herbicidal action” value was 7.

For Cn1nc(C[S+]([O-])C2=NOC(C)(C)C2F)c(C(F)(F)F)n1 (stereo not shown) [7.43], the “AGSTE herbicidal action” value was 10, the “AMARE herbicidal action” value was 10 and the “DIGSA herbicidal action” value was 10. For the same compound, the “POATR herbicidal action” value was 10.

C#CCn1cc(C[S+]([O-])C2=NOC(C)(C)C2F)c(C(F)(F)F)n1 (mixture of isomers) [2.49] was tested, and the “AGSTE herbicidal action” value was 10, the “AMARE herbicidal action” value was 10 and the “DIGSA herbicidal action” value was 10. For the same compound, the “POATR herbicidal action” value was 10.

With COc1cc(C[S+]([O-])C2=NOC(C)(C)C2F)n(C)n1 (mixture of isomers) [6.12] the “AGSTE herbicidal action” value was 10, the “AMARE herbicidal action” value was 10 and the “DIGSA herbicidal action” value was 10. For the same compound, the “POATR herbicidal action” value was 10.

With CC1(C)ON=C(S(=O)(=O)Cc2ccccc2OC(F)(F)F)C1F (stereo not shown) [1.11] the “AGSTE herbicidal action” value was 10, the “AMARE herbicidal action” value was 7 and the “DIGSA herbicidal action” value was 10. For the same compound, the “POATR herbicidal action” value was 10 and the “SETIT herbicidal action” value was 8.

Cn1nc(OC(F)F)c(CS(=O)(=O)C2=NOC(C)(C)C2F)c1C(F)(F)F (stereo not shown) [2.31] was tested, and the “AGSTE herbicidal action” value was 10, the “AMARE herbicidal action” value was 10 and the “DIGSA herbicidal action” value was 10. For the same compound, the “POATR herbicidal action” value was 10 and the “SETIT herbicidal action” value was 10.

With Cn1nc(C(F)(F)F)cc1C[S+]([O-])C1=NOC(C)(C)C1F (mixture of isomers) [6.03] the “AGSTE herbicidal action” value was 10, the “AMARE herbicidal action” value was 8 and the “DIGSA herbicidal action” value was 9. The “POATR herbicidal action” value was 10.

With CCc1nn(C)nc1CSC1=NOC(C)(C)C1F (stereo not shown) [Compound No. 7.31] the “AGSTE herbicidal action” value was 9, the “AMARE herbicidal action” value was 0 and the “DIGSA herbicidal action” value was 7. The “POATR herbicidal action” value was 0.

For CC1(C)ON=C([S+]([O-])Cc2c(F)cccc2F)C1F (single isomer, unassigned) [1.15], the “AGSTE herbicidal action” value was 10, the “AMARE herbicidal action” value was 9 and the “DIGSA herbicidal action” value was 9. For the same compound, the “POATR herbicidal action” value was 10 and the “SETIT herbicidal action” value was 9.

In the case of Cn1nc(C(F)(F)F)c(C[S+]([O-])C2=NOC(C)(C)C2Cl)c1OCC(F)(F)F (stereo not shown) [Compound No. 2.14, 4-Chloro-5,5-dimethyl-3-[1-methyl-5-(2,2,2-trifluoro-ethoxy)-3-trifluoromethyl-1H-pyrazol-4-ylmethylsulfinyl]-4,5-dihydro-isoxazole], the “AGSTE herbicidal action” value is reported as 10, the “AMARE herbicidal action” value is reported as 9 and the “DIGSA herbicidal action” value is reported as 9. The “POATR herbicidal action” value was 10 and the “SETIT herbicidal action” value was 9.
